≈ marks a conversion by molar mass, not a printed value. Like-named read-outs stand apart in the source and are kept apart here.
Legend:
[1] = tested on: MDR E. coli ASEC 10; set-up: method as in Asan hospital; key to susceptibility category: S: susceptible; R: resistant; I: intermediate; conditions: ref Asan hospital, cited from earlier work; for MIC: ASEC 10 (ESBL), resistance information of clinical isolate; for susceptibility category: ASEC 10
[2] = tested on: MDR E. coli ASEC 17; set-up: method as in Asan hospital; key to susceptibility category: S: susceptible; R: resistant; I: intermediate; conditions: ref Asan hospital, cited from earlier work; for MIC: ASEC 17 (AmpC), resistance information of clinical isolate; for susceptibility category: ASEC 17
[3] = tested on: MDR E. coli ASEC 2; set-up: method as in Asan hospital; key to susceptibility category: S: susceptible; R: resistant; I: intermediate; conditions: ref Asan hospital, cited from earlier work; for MIC: ASEC 2 (NDM-7), resistance information of clinical isolate; for susceptibility category: ASEC 2
[4] = tested on: MDR E. coli ASEC 7; set-up: method as in Asan hospital; key to susceptibility category: S: susceptible; R: resistant; I: intermediate; conditions: ref Asan hospital, cited from earlier work; for MIC: ASEC 7 (ESBL), resistance information of clinical isolate; for susceptibility category: ASEC 7
[5] = tested on: MDR E. coli ASEC 13; set-up: method as in Asan hospital; key to susceptibility category: S: susceptible; R: resistant; I: intermediate; conditions: ref Asan hospital, cited from earlier work; for MIC: ASEC 13 (AmpC), resistance information of clinical isolate; for susceptibility category: ASEC 13
[6] = tested on: MDR E. coli ASEC 12; set-up: method as in Asan hospital; key to susceptibility category: S: susceptible; R: resistant; I: intermediate; conditions: ref Asan hospital, cited from earlier work; for MIC: ASEC 12 (AmpC), resistance information of clinical isolate; for susceptibility category: ASEC 12
[7] = tested on: MDR E. coli ASEC 5; set-up: method as in Asan hospital; key to susceptibility category: S: susceptible; R: resistant; I: intermediate; conditions: ref Asan hospital, cited from earlier work; for MIC: ASEC 5 (ESBL), resistance information of clinical isolate; for susceptibility category: ASEC 5
[8] = tested on: MDR E. coli ASEC 8; assay: microbe, parasite or virus in culture; assay type: cell-based, Escherichia coli; conditions: Escherichia coli, microdilution, LB, 18 to 24 h, 37°C, three independent experiments, read-out: MIC
Experimental: (§1) Bacterial cells were cultured at 37°C in the appropriate culture media with shaking (180 rpm). Luria-Bertani broth (LB) (244620; BD Difco) was used for E. coli ATCC 25922, ASEC strains, and B. subtilis KCTC 2217. Nutrient broth (NB) (234000; BD Difco) was used for P. aeruginosa ATCC 27853, S. Typhimurium KCTC 1926, and A. baumannii KCTC 2508. Tryptic soy broth (TSB) (211825; BD Difco) was used for S. aureus ATCC 25923. Finally, brain heart infusion (BHI) (237500; BD Difco) was used for L. monocytogenes KCTC 3710. The antimicrobial activity of each peptide was determined using microdilution assays. To this end, 2-fold serial dilution series of each peptide (from 1 to 64 μM) were added to duplicate media with 10 mM sodium phosphate buffer (pH 7.4). Fifty microliters of the peptide and antibiotic solution was added to each well of a 96-well plate (32096, surface nontreatment; SPL Life Sciences). Then, 50 μL of 2 × 10^5 CFU mL^−1 of bacteria was added to each well, and the samples were incubated for 18 to 24 h without shaking at 37°C.

[9] = tested on: MDR E. coli ASEC 12; assay: microbe, parasite or virus in culture; assay type: cell-based, Escherichia coli; conditions: Escherichia coli, microdilution, LB, 18 to 24 h, 37°C, three independent experiments, read-out: MIC
Experimental: as §1

[10] = tested on: MDR E. coli ASEC 9; assay: microbe, parasite or virus in culture; assay type: cell-based, Escherichia coli; conditions: Escherichia coli, microdilution, LB, 18 to 24 h, 37°C, three independent experiments, read-out: MIC
Experimental: as §1

[11] = tested on: MDR E. coli ASEC 14; assay: microbe, parasite or virus in culture; assay type: cell-based, Escherichia coli; conditions: Escherichia coli, microdilution, LB, 18 to 24 h, 37°C, three independent experiments, read-out: MIC
Experimental: as §1

[12] = tested on: MDR E. coli ASEC 19; assay: microbe, parasite or virus in culture; assay type: cell-based, Escherichia coli; conditions: Escherichia coli, microdilution, LB, 18 to 24 h, 37°C, three independent experiments, read-out: MIC
Experimental: as §1

[13] = tested on: MDR E. coli ASEC 4; assay: microbe, parasite or virus in culture; assay type: cell-based, Escherichia coli; conditions: Escherichia coli, microdilution, LB, 18 to 24 h, 37°C, three independent experiments, read-out: MIC
Experimental: as §1

[14] = tested on: MDR E. coli ASEC 18; assay: microbe, parasite or virus in culture; assay type: cell-based, Escherichia coli; conditions: Escherichia coli, microdilution, LB, 18 to 24 h, 37°C, three independent experiments, read-out: MIC
Experimental: as §1

[15] = tested on: E. coli ATCC 25922; assay: microbe, parasite or virus in culture; assay type: cell-based, Escherichia coli; conditions: Escherichia coli, ATCC25922, microdilution, LB, 2 × 10^5 CFU mL^−1, 18 to 24 h, 37°C, three independent experiments, read-out: MIC
Experimental: as §1

[16] = tested on: MDR E. coli ASEC 13; assay: microbe, parasite or virus in culture; assay type: cell-based, Escherichia coli; conditions: Escherichia coli, microdilution, LB, 18 to 24 h, 37°C, three independent experiments, read-out: MIC
Experimental: as §1

[17] = tested on: MDR E. coli ASEC 7; assay: microbe, parasite or virus in culture; assay type: cell-based, Escherichia coli; conditions: Escherichia coli, microdilution, LB, 18 to 24 h, 37°C, three independent experiments, read-out: MIC
Experimental: as §1

[18] = tested on: MDR E. coli ASEC 15; assay: microbe, parasite or virus in culture; assay type: cell-based, Escherichia coli; conditions: Escherichia coli, microdilution, LB, 18 to 24 h, 37°C, three independent experiments, read-out: MIC
Experimental: as §1

[19] = tested on: MDR E. coli ASEC 10; assay: microbe, parasite or virus in culture; assay type: cell-based, Escherichia coli; conditions: Escherichia coli, microdilution, LB, 18 to 24 h, 37°C, three independent experiments, read-out: MIC
Experimental: as §1

[20] = tested on: MDR E. coli ASEC 11; assay: microbe, parasite or virus in culture; assay type: cell-based, Escherichia coli; conditions: Escherichia coli, microdilution, LB, 18 to 24 h, 37°C, three independent experiments, read-out: MIC
Experimental: as §1

[21] = tested on: MDR E. coli ASEC 16; assay: microbe, parasite or virus in culture; assay type: cell-based, Escherichia coli; conditions: Escherichia coli, microdilution, LB, 18 to 24 h, 37°C, three independent experiments, read-out: MIC
Experimental: as §1

[22] = tested on: MDR E. coli ASEC 1; assay: microbe, parasite or virus in culture; assay type: cell-based, Escherichia coli; conditions: Escherichia coli, microdilution, LB, 18 to 24 h, 37°C, three independent experiments, read-out: MIC
Experimental: as §1

[23] = tested on: MDR E. coli ASEC 17; assay: microbe, parasite or virus in culture; assay type: cell-based, Escherichia coli; conditions: Escherichia coli, microdilution, LB, 18 to 24 h, 37°C, three independent experiments, read-out: MIC
Experimental: as §1

[24] = tested on: MDR E. coli ASEC 3; assay: microbe, parasite or virus in culture; assay type: cell-based, Escherichia coli; conditions: Escherichia coli, microdilution, LB, 18 to 24 h, 37°C, three independent experiments, read-out: MIC
Experimental: as §1

[25] = tested on: MDR E. coli ASEC 5; assay: microbe, parasite or virus in culture; assay type: cell-based, Escherichia coli; conditions: Escherichia coli, microdilution, LB, 18 to 24 h, 37°C, three independent experiments, read-out: MIC
Experimental: as §1

[26] = tested on: MDR E. coli ASEC 6; assay: microbe, parasite or virus in culture; assay type: cell-based, Escherichia coli; conditions: Escherichia coli, microdilution, LB, 18 to 24 h, 37°C, three independent experiments, read-out: MIC
Experimental: as §1

[27] = tested on: MDR E. coli ASEC 2; assay: microbe, parasite or virus in culture; assay type: cell-based, Escherichia coli; conditions: Escherichia coli, microdilution, LB, 18 to 24 h, 37°C, three independent experiments, read-out: MIC
Experimental: as §1

Compound | MIC [1] [µg/mL] | susceptibility category [1] | MIC [2] [µg/mL] | susceptibility category [2] | MIC [3] [µg/mL] | susceptibility category [3] | MIC [4] [µg/mL] | susceptibility category [4] | MIC [5] [µg/mL] | susceptibility category [5] | MIC [6] [µg/mL] | susceptibility category [6] | MIC [7] [µg/mL] | susceptibility category [7] | MIC [8] [µM] | MIC [9] [µM] | MIC [10] [µM] | MIC [11] [µM] | MIC [12] [µM] | MIC [13] [µM] | further results
CO/N=C(\C(=O)N[C@@H]1C(=O)N2C(C(=O)O)=C(COC(C)=O)CS[C@H]12)c1csc(N)n1 [Cefotaxime] | > 32 | R | > 32 | R | > 32 | R | > 32 | R | > 32 | R | > 32 | R | > 32 | R | > 32 | > 32 | > 32 | > 32 | > 32 | > 32 | MIC [14]: > 32 µM; MIC [15]: < 1 µM; MIC [16]: > 32 µM; MIC [17]: > 32 µM; MIC [18]: > 32 µM; MIC [19]: > 32 µM; MIC [20]: > 32 µM; MIC [21]: > 32 µM; MIC [22]: > 32 µM; MIC [23]: > 32 µM; MIC [24]: > 32 µM; MIC [25]: > 32 µM; MIC [26]: > 32 µM; MIC [27]: > 32 µM
CC(C)(O/N=C(\C(=O)N[C@@H]1C(=O)N2C(C(=O)[O-])=C(C[n+]3ccccc3)CS[C@H]12)c1csc(N)n1)C(=O)O [Ceftazidime] | 16 (≈ 29.3 µM) | R | > 16 | R | > 16 | R | > 16 | R | > 16 | R | 16 (≈ 29.3 µM) | R | > 16 | R | > 32 | > 32 | > 32 | > 32 | > 32 | > 32 | MIC [14]: > 32 µM; MIC [15]: < 1 µM; MIC [16]: > 32 µM; MIC [17]: 16 µM (≈ 8.75 µg/mL); MIC [18]: > 32 µM; MIC [19]: 32 µM (≈ 17.5 µg/mL); MIC [20]: > 32 µM; MIC [21]: > 32 µM; MIC [22]: > 32 µM; MIC [23]: > 32 µM; MIC [24]: > 32 µM; MIC [25]: > 32 µM; MIC [26]: > 32 µM; MIC [27]: > 32 µM
